The record followed here is US5659055A, “Cytoprotective fatty moiety compounds” (Virginia Commonwealth University, priority 1995, dated 1997).

The experiment relates to PLA2 derived from plasma, sperm, platelets, human synovial fluid and N. naja cobra venom. Kind of experiment: In vitro inhibition of PLA2 from a variety of sources (FIG. 8). The experiment is classed as biochemical.

`CCCCCCC(C/C=C\CCCCCCCC(=O)O)OC(=O)CCCCCCCCC(=O)O` (stereo not shown) [RISE-1, Ricinoleic Acid--Sebacyl Ester]: the “in vitro inhibition of PLA2 from different sources” value is recorded as “dose related, selective in vitro inhibition”.
